Assay results taken from paper PMC4224687 (Journal of Controlled Release, 2014).

Type: in vivo, male Sprague-Dawley rats
Settings: rats, saline solution, 50 mg/kg

- oral absorption: not absorbed
Structure (SMILES): CO[C@H]1O[C@H](COS(=O)(=O)O)[C@@H](O[C@@H]2O[C@@H](C(=O)O)[C@@H](O[C@H]3O[C@H](COS(=O)(=O)O)[C@@H](O[C@@H]4O[C@H](C(=O)O)[C@@H](O[C@H]5O[C@H](COS(=O)(=O)O)[C@@H](O)[C@H](O)[C@H]5NS(=O)(=O)O)[C@H](O)[C@H]4O)[C@H](OS(=O)(=O)O)[C@H]3NS(=O)(=O)O)[C@H](O)[C@H]2OS(=O)(=O)O)[C@H](O)[C@H]1NS(=O)(=O)O [Fpx, Fondaparinux]
